# Read-outs that look alike come from different tables or passages of the source.
# Experiments:
# [1] = tested on: scopolamine induced deficit (dementia/amnesia) in mice; assay: Single trial passive avoidance test, scopolamine induced amnesia; format: in vivo; settings: Mus musculus, 24 h
# Protocol: Single trial passive avoidance is widely used as experimental test to assess learning memory functions in rodents. […] Passive Avoidance Test (in vivo): Study was conducted in adult Swiss male mice of 3-4 months (wt. 20-25 g) which were kept in standard housing condition with 12h light and dark cycle. Food and water were available ad libitum. […] Passive avoidance test was studied by a computerized shuttle box (Columbus Instruments, Ohio, USA) provided with a software program PACS 30. The shuttle box comprises of two compartments, isolated by an automated door. […] Each mouse was placed in the bright compartment and on transfer into the dark compartment it was given an electric shock (0.5 mA for 5 s) through floor grid. Transfer of mice from bright to dark compartment was recorded as transfer latency time (TLT) in seconds. TLT was recorded in control and treated groups (1st Trial, acquisition) and then after 24 hours (2nd Trial, retention). An increase in the TLT on 2nd Trial (retention) as compared to 1st Trial (acquisition) was taken as the criterion for successful learning and memory (cognitive activity). Scopolamine induced deficit (Dementia): Scopolamine a muscarinic antagonist, known to produce impairment in cognitive functions (dementia) in human as well as in experimental animals, was used to produce deficit (no significant increase on 2nd trial) in passive avoidance learning. Scopolamine was administered 5 min prior to 1st trial. Reversal of scopolamine induced deficit i.e. significant increase in 2nd trial by test substance indicates potential anti-dementia activity. […]. Drug administration: Scopolamine was administered 5 min prior to 1st trial in test group. Each test compound was administered orally in dose of 20µmol/kg (1% aq. suspension in gum acacia) 1 hour prior to 2nd trial in scopolamine treated mice (n=5). Scopolamine control group received 1 ml/kg of vehicle (1% aq. suspension in gum acacia) orally. Scopolamine was administered 5 min prior to 1st trial in test group. […] Donepezil (10 mg/kg, po, as1% aqueous suspension in gum acacia) was used as standard drug and given 1 hour prior to 2nd trial in scopolamine treated mice. Statistical analysis: Mean values and standard error (S.E.) of mean were calculated for TLT and specific activity of AChE in the different regions of brain samples of each group. The significance of difference between the values of AChE activity and TLT between the groups was determined by one-way ANOVA test that followed by Dunnett's test. Table 4: Effect of the compounds on scopolamine induced amnesia in passive avoidance test
# Acetylcholinesterase = target: T1, Acetylcholinesterase (Rattus norvegicus, UniProt P37136); assay: Inhibitive effect on acetylcholinesterase activity (Ellman assay, rat brain homogenate supernatant); format: biochemical, rats; settings: for % Cholinesterase Enzyme Activity: Control AChE activity = 0.014446 (µmol / mg of protein/min)
# T1 construct: Aliquots of this supernatant was diluted in the ratio of 1:10 and used as a source of enzyme for the assay; from tissue; host or cells: whole brain of adult SD male rats; 10% homogenate with 1% Triton X-100, 100,000 x g supernatant
# T1 sequence (P37136 32-614): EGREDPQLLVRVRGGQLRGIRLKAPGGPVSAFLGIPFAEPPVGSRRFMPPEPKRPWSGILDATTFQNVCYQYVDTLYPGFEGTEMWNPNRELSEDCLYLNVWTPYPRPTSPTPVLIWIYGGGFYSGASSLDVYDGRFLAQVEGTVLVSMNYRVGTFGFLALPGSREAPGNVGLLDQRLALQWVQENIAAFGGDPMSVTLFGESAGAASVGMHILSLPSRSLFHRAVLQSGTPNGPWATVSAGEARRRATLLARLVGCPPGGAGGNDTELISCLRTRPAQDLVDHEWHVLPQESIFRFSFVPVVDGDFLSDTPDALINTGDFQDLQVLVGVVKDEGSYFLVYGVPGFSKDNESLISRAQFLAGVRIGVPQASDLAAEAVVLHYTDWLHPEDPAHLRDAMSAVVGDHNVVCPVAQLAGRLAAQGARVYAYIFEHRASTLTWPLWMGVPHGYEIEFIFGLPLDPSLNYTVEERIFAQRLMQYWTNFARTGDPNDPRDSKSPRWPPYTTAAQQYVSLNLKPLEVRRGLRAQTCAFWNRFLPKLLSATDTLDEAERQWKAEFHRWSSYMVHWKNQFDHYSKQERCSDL
# Protocol: The study was conducted in adult SD male rats (200-250 g). Rats were perfused under mild ether anesthesia through heart with ice cooled normal saline (0.9% NaCl) to reduce blood-borne cholinesterase from brain. After perfusion whole brain was taken out. 10% (w/v) homogenate of brain was prepared first by homogenizing in Ultra-Turrax T25 homogenizer at a speed of 9500 rpm thrice giving intervals for few seconds in between the runs, with sodium phosphate buffer (30 mmol/lit, pH 7.0). Sodium phosphate buffer was taken in a volume half to the final volume required for 10% homogenate. 1% Triton X-100 (1% w/v in 30 mmol/lit. sodium phosphate buffer, pH 7.0) is then added in a volume to make the final volume for 10% homogenate, slowly while stirring the homogenate on ice.
# Kinetic profile of the enzyme activity was studied spectrophotometrically at 412 nm at an interval of 15 s. Assay for each sample was run in duplicate and each experiment was performed thrice.
# The specific activity of AChE is expressed in µmoles/min/mg of protein.
# […] Tacrine (1µmol) was used as standard AChE inhibitor (standard control). The AChE inhibitory activity was calculated on the basis of % decrease change from control values i.e. AChE acivity without incubation with any standard or test drug.
# Bovine serum albumin (BSA) was used as standard in the concentration of 1 mg/ml. was estimated in the range of 0.01-0. mg/ml.
# [2] = % Learning in treated gp - % Learning in Scopolamine gp, test compound orally 20µmol/kg, Donepezil 10 mg/kg po, read-out: % Improvement in Learning
# [3] = [2nd Trial - 1st trial/1st trial] x 100, scopolamine treated mice, test compound orally 20µmol/kg, Donepezil 10 mg/kg po, read-out: % Learning
compound,measurement,setting,value
"CCCCCCCNC(=O)Oc1ccc2ncccc2c1 [1b, heptyl-carbamic acid quinolin-6-yl ester]",change in vivo at 20 µmol/kg,[1]; [2],107%
same,change in vivo at 20 µmol/kg,[1]; [3],140%
"O=C(Nc1ccccc1Cl)Oc1ccc2ncccc2c1 [1c, (2-chloro-phenyl)-carbamic acid quinolin-6-yl ester]",change in vivo at 20 µmol/kg,[1]; [2],123%
same,change in vivo at 20 µmol/kg,[1]; [3],157%
"O=C(Nc1cccc(Br)c1)Oc1ccc2c(c1)CCCN2 [2c, (3-bromo-phenyl)-carbamic acid 1,2,3,4-tetrahydro-quinolin-6-yl ester]",change in vivo at 20 µmol/kg,[1]; [2],67.4%
same,change in vivo at 20 µmol/kg,[1]; [3],101%
"CCCCCCNC(=O)Oc1ccc2c(c1)CCCN2Cc1ccccc1 [2h, hexyl-carbamic acid 1-benzyl-1,2,3,4-tetrahydro-quinolin-6-yl ester]",change in vivo at 20 µmol/kg,[1]; [2],89.2%
same,change in vivo at 20 µmol/kg,[1]; [3],123%
"O=C(Nc1ccccc1Cl)Oc1ccc2c(c1)CCCN2Cc1ccccc1 [2i, (2-chloro-phenyl)-carbamic acid 1-benzyl-1,2,3,4-tetrahydro-quinolin-6-yl ester]",change in vivo at 20 µmol/kg,[1]; [2],89.6%
same,change in vivo at 20 µmol/kg,[1]; [3],123%
same,IC50,Acetylcholinesterase,3.31 µM
same,% Anticholinesterase Enzyme Inhibition,Acetylcholinesterase; Conc. 0.1 µm,6.45%
same,Cholinesterase Enzyme Activity,Acetylcholinesterase; Conc. 0.1 µm,0.01351 µmol / mg of protein/min
same,% Cholinesterase Enzyme Activity,Acetylcholinesterase; Conc. 0.1 µm,93.54%
same,% Anticholinesterase Enzyme Inhibition,Acetylcholinesterase; Conc. 0.3 µm,16.12%
same,Cholinesterase Enzyme Activity,Acetylcholinesterase; Conc. 0.3 µm,0.01211 µmol / mg of protein/min
same,% Cholinesterase Enzyme Activity,Acetylcholinesterase; Conc. 0.3 µm,83.87%
same,% Anticholinesterase Enzyme Inhibition,Acetylcholinesterase; Conc. 1 µm,25.80%
same,Cholinesterase Enzyme Activity,Acetylcholinesterase; Conc. 1 µm,0.01071 µmol / mg of protein/min
same,% Cholinesterase Enzyme Activity,Acetylcholinesterase; Conc. 1 µm,74.19%
same,% Anticholinesterase Enzyme Inhibition,Acetylcholinesterase; Conc. 3 µm,48.38%
same,Cholinesterase Enzyme Activity,Acetylcholinesterase; Conc. 3 µm,0.007456 µmol / mg of protein/min
same,% Cholinesterase Enzyme Activity,Acetylcholinesterase; Conc. 3 µm,51.61%
same,% Anticholinesterase Enzyme Inhibition,Acetylcholinesterase; Conc. 10 µm,87.09%
same,Cholinesterase Enzyme Activity,Acetylcholinesterase; Conc. 10 µm,0.001864 µmol / mg of protein/min
same,% Cholinesterase Enzyme Activity,Acetylcholinesterase; Conc. 10 µm,12.90%
"CN1CCCc2cc(OC(=O)Nc3ccc(Cl)c(C(F)(F)F)c3)ccc21 [2q, (4-chloro-3-trifluoromethyl-phenyl)-carbamic acid 1-methyl-1,2,3,4-tetrahydro-quinolin-6-yl ester]",change in vivo at 20 µmol/kg,[1]; [2],76%
same,change in vivo at 20 µmol/kg,[1]; [3],109%
"CN1CCCc2cc(OC(=O)Nc3ccc(Br)cc3)ccc21 [2r, (4-bromo-phenyl)-carbamic acid 1-methyl-1,2,3,4-tetrahydro-quinolin-6-yl ester]",change in vivo at 20 µmol/kg,"[1]; po, read-out: % Improvement in Learning",62%
same,change in vivo at 20 µmol/kg,"[1]; po, read-out: % Learning",95.6%
"COc1cc2c(cc1OC)C(=O)C(CC1CCN(Cc3ccccc3)CC1)C2 (centres unmarked) [DONEPEZIL, donepezil, reference compound]",change in vivo at 20 µmol/kg,[1]; [2],134%
same,change in vivo at 20 µmol/kg,[1]; [3],168%
